Assays:
AR-VP16 [1] = biological target: T1, AR-VP16 (Homo sapiens, UniProt P10275); assay: AR-VP16 DNA Binding Assay, agonist mode (HepG2 cells); type: cell-based; details: Emax >20x DMSO control = agonist
T1 sequence (P10275 560-920 limits assumed): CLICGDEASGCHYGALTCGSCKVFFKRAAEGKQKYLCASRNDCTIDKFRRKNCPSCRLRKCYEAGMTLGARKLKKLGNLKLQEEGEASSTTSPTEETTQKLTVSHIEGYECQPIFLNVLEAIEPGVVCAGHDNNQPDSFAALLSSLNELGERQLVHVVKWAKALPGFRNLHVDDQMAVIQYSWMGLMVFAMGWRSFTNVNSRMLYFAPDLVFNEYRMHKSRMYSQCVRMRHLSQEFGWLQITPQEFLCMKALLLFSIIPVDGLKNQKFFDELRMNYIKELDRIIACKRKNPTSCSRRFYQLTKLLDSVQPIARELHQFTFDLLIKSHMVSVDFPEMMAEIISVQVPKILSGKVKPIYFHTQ

AR-VP16 [2] = biological target: T1, AR-VP16; assay: AR-VP16 DNA Binding Assay, antagonist mode (HepG2 cells, 0.1 nM R1881); type: cell-based
Outline: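 Transfected HepG2 cells expressing AR-VP16 received serially diluted compound in charcoal-stripped-serum RPMI the day after transfection, with 0.1 nM R1881 (final) added only for antagonist testing. After 48 h, cells were lysed for measurement.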

SMILES: Cc1cc(N2C(=O)C3(CCC3)N(c3ccc(O)cc3)C2=S)cnc1C#N [Compound 77, 5-(5-(4-hydroxyphenyl)-8-oxo-6-thioxo-5,7-diazaspiro[3.4]octan-7-yl)-3-methylpicolinonitrile]
- ARVP16 DNA Binding Assay (Agonist mode): Agonist? (AR-VP16 [1]): No (Agonist defined as a compound whose Emax in the ARVP16 DNA Binding Assay (Agonist mode) is >20x DMSO control)
- IC50 (AR-VP16 [2]): > 1000 nM

SMILES: Cc1ccc(CCN2C(=S)N(c3cnc(C#N)c(C(F)(F)F)c3)C(=O)C23CCC3)cc1 [Compound 85, 5-(5-(4-Methylphenethyl)-8-oxo-6-thioxo-5,7-diazaspiro[3.4]octan-7-yl)-3-(trifluoromethyl)picolinonitrile]
- ARVP16 DNA Binding Assay (Agonist mode): Agonist? (AR-VP16 [1]): Yes (Agonist defined as a compound whose Emax in the ARVP16 DNA Binding Assay (Agonist mode) is >20x DMSO control)
- IC50 (AR-VP16 [2]): < 1000 nM

SMILES: COCCOc1ccc(N2C(=S)N(c3cnc(C#N)c(C)c3)C(=O)C23CCC3)cc1F [Compound 168, 5-(5-(3-Fluoro-4-(2-methoxyethoxy)phenyl)-8-oxo-6-thioxo-5,7-diazaspiro[3.4]octan-7-yl)-3-methylpicolinonitrile]
- ARVP16 DNA Binding Assay (Agonist mode): Agonist? (AR-VP16 [1]): No (Agonist defined as a compound whose Emax in the ARVP16 DNA Binding Assay (Agonist mode) is >20x DMSO control)
- IC50 (AR-VP16 [2]): < 1000 nM

SMILES: N#Cc1ncc(N2C(=O)C3(CCC3)N(c3ccc(OCCC[S+]([O-])CCCC(F)(F)C(F)(F)F)c(F)c3)C2=S)cc1C(F)(F)F (stereo not shown) [Compound 154, 5-(5-(3-Fluoro-4-(3-((4,4,5,5,5-pentafluoropentyl)sulfinyl)propoxy)phenyl)-8-oxo-6-thioxo-5,7-diazaspiro[3.4]octan-7-yl)-3-(trifluoromethyl)picolinonitrile]
- ARVP16 DNA Binding Assay (Agonist mode): Agonist? (AR-VP16 [1]): No (Agonist defined as a compound whose Emax in the ARVP16 DNA Binding Assay (Agonist mode) is >20x DMSO control)
- IC50 (AR-VP16 [2]): < 1000 nM

SMILES: N#Cc1ncc(N2C(=O)C3(CCC3)N(c3ccc(C(=O)N4CCOCC4)c(F)c3)C2=S)cc1C(F)(F)F [Compound 271, 5-(5-(3-Fluoro-4-(morpholine-4-carbonyl)phenyl)-8-oxo-6-thioxo-5,7-diazaspiro[3.4]octan-7-yl)-3-(trifluoromethyl)picolinonitrile]
- ARVP16 DNA Binding Assay (Agonist mode): Agonist? (AR-VP16 [1]): No (Agonist defined as a compound whose Emax in the ARVP16 DNA Binding Assay (Agonist mode) is >20x DMSO control)
- IC50 (AR-VP16 [2]): > 1000 nM

SMILES: N#Cc1ncc(N2C(=O)C3(CCC3)N(c3ccc(O)c(F)c3)C2=S)cc1C(F)(F)F [Compound 1, 5-(5-(3-Fluoro-4-hydroxyphenyl)-8-oxo-6-thioxo-5,7-diazaspiro[3.4]octan-7-yl)-3-(trifluoromethyl)picolinonitrile]
- ARVP16 DNA Binding Assay (Agonist mode): Agonist? (AR-VP16 [1]): No (Agonist defined as a compound whose Emax in the ARVP16 DNA Binding Assay (Agonist mode) is >20x DMSO control)
- IC50 (AR-VP16 [2]): < 1000 nM

SMILES: Cc1ccc(N2C(=S)N(c3cnc(C#N)c(C(F)(F)F)c3)C(=O)C23CCC3)c(F)c1 [Compound 50, 5-(5-(2-Fluoro-4-methylphenyl)-8-oxo-6-thioxo-5,7-diazaspiro[3.4]octan-7-yl)-3-(trifluoromethyl)picolinonitrile]
- ARVP16 DNA Binding Assay (Agonist mode): Agonist? (AR-VP16 [1]): No (Agonist defined as a compound whose Emax in the ARVP16 DNA Binding Assay (Agonist mode) is >20x DMSO control)
- IC50 (AR-VP16 [2]): < 1000 nM

SMILES: Cc1ccc(N2C(=S)N(c3cnc(C#N)c(Cl)c3)C(=O)C23CCC3)cc1 [Compound 57, 3-Chloro-5-(8-oxo-6-thioxo-5-(p-tolyl)-5,7-diazaspiro[3.4]octan-7-yl)picolinonitrile]
- ARVP16 DNA Binding Assay (Agonist mode): Agonist? (AR-VP16 [1]): No (Agonist defined as a compound whose Emax in the ARVP16 DNA Binding Assay (Agonist mode) is >20x DMSO control)
- IC50 (AR-VP16 [2]): < 1000 nM

SMILES: CCN1CCC(Oc2ccc(N3C(=S)N(c4cnc(C#N)c(C)c4)C(=O)C34CCC4)cc2)CC1 [Compound 216, 5-(5-(4-((1-Ethylpiperidin-4-yl)oxy)phenyl)-8-oxo-6-thioxo-5,7-diazaspiro[3.4]octan-7-yl)-3-methylpicolinonitrile]
- ARVP16 DNA Binding Assay (Agonist mode): Agonist? (AR-VP16 [1]): No (Agonist defined as a compound whose Emax in the ARVP16 DNA Binding Assay (Agonist mode) is >20x DMSO control)
- IC50 (AR-VP16 [2]): > 1000 nM

SMILES: Cc1cc(N2C(=O)C3(CCC3)N(c3ccc(OCCO)cc3)C2=S)cnc1C#N [Compound 223, 5-(5-(4-(2-Hydroxyethoxy)phenyl)-8-oxo-6-thioxo-5,7-diazaspiro[3.4]octan-7-yl)-3-methylpicolinonitrile]
- ARVP16 DNA Binding Assay (Agonist mode): Agonist? (AR-VP16 [1]): No (Agonist defined as a compound whose Emax in the ARVP16 DNA Binding Assay (Agonist mode) is >20x DMSO control)
- IC50 (AR-VP16 [2]): < 1000 nM

SMILES: CN1CCN(CCOc2ccc(N3C(=S)N(c4cnc(C#N)c(C(F)(F)F)c4)C(=O)C34CCC4)cc2F)CC1 [Compound 149, 5-(5-(3-Fluoro-4-(2-(4-methylpiperazin-1-yl)ethoxy)phenyl)-8-oxo-6-thioxo-5,7-diazaspiro[3.4]octan-7-yl)-3-(trifluoromethyl)picolinonitrile]
- ARVP16 DNA Binding Assay (Agonist mode): Agonist? (AR-VP16 [1]): No (Agonist defined as a compound whose Emax in the ARVP16 DNA Binding Assay (Agonist mode) is >20x DMSO control)
- IC50 (AR-VP16 [2]): < 1000 nM

SMILES: N#Cc1ncc(N2C(=O)C3(CCC3)N(c3ccc(S(=O)(=O)CCc4ccncc4)cc3)C2=S)cc1C(F)(F)F [Compound 91, 5-(8-Oxo-5-(4-((2-(pyridin-4-yl)ethyl)sulfonyl)phenyl)-6-thioxo-5,7-diazaspiro[3.4]octan-7-yl)-3-(trifluoromethyl)picolinonitrile]
- ARVP16 DNA Binding Assay (Agonist mode): Agonist? (AR-VP16 [1]): No (Agonist defined as a compound whose Emax in the ARVP16 DNA Binding Assay (Agonist mode) is >20x DMSO control)
- IC50 (AR-VP16 [2]): > 1000 nM

SMILES: CN1CCN(CCNC(=O)c2ccc(N3C(=S)N(c4cnc(C#N)c(C(F)(F)F)c4)C(=O)C34CCC4)cc2F)CC1 [Compound 243, 4-(7-(6-Cyano-5-(trifluoromethyl)pyridin-3-yl)-8-oxo-6-thioxo-5,7-diazaspiro[3.4]octan-5-yl)-2-fluoro-N-(2-(4-methylpiperazin-1-yl)ethyl)benzamide]
- ARVP16 DNA Binding Assay (Agonist mode): Agonist? (AR-VP16 [1]): No (Agonist defined as a compound whose Emax in the ARVP16 DNA Binding Assay (Agonist mode) is >20x DMSO control)
- IC50 (AR-VP16 [2]): > 1000 nM

SMILES: Cc1cc(N2C(=O)C3(CCC3)N(c3ccc(OC4CCNCC4)cc3)C2=S)cnc1C#N [Compound 210, 3-Methyl-5-(8-oxo-5-(4-(piperidin-4-yloxy)phenyl)-6-thioxo-5,7-diazaspiro[3.4]octan-7-yl)picolinonitrile]
- ARVP16 DNA Binding Assay (Agonist mode): Agonist? (AR-VP16 [1]): No (Agonist defined as a compound whose Emax in the ARVP16 DNA Binding Assay (Agonist mode) is >20x DMSO control)
- IC50 (AR-VP16 [2]): > 1000 nM

SMILES: N#Cc1ncc(N2C(=O)C3(CCC3)N(c3ccc(Oc4cccnc4)cc3)C2=S)cc1C(F)(F)F [Compound 39, 5-(8-Oxo-5-(4-(pyridin-3-yloxy)phenyl)-6-thioxo-5,7-diazaspiro[3.4]octan-7-yl)-3-(trifluoromethyl)picolinonitrile]
- ARVP16 DNA Binding Assay (Agonist mode): Agonist? (AR-VP16 [1]): Yes (Agonist defined as a compound whose Emax in the ARVP16 DNA Binding Assay (Agonist mode) is >20x DMSO control)
- IC50 (AR-VP16 [2]): < 1000 nM

SMILES: N#Cc1ncc(N2C(=O)C3(CCC3)N(c3ccc(C(=O)NCc4ccc(Cl)cc4)c(F)c3)C2=S)cc1C(F)(F)F [Compound 289, N-(4-Chlorobenzyl)-4-(7-(6-cyano-5-(trifluoromethyl)pyridin-3-yl)-8-oxo-6-thioxo-5,7-diazaspiro[3.4]octan-5-yl)-2-fluorobenzamide]
- ARVP16 DNA Binding Assay (Agonist mode): Agonist? (AR-VP16 [1]): No (Agonist defined as a compound whose Emax in the ARVP16 DNA Binding Assay (Agonist mode) is >20x DMSO control)
- IC50 (AR-VP16 [2]): < 1000 nM

SMILES: N#Cc1ncc(N2C(=O)C3(CCC3)N(c3ccc(OCCCCOCc4ccccc4)c(F)c3)C2=S)cc1C(F)(F)F [Compound 136, 5-(5-(4-(4-(Benzyloxy)butoxy)-3-fluorophenyl)-8-oxo-6-thioxo-5,7-diazaspiro[3.4]octan-7-yl)-3-(trifluoromethyl)picolinonitrile]
- ARVP16 DNA Binding Assay (Agonist mode): Agonist? (AR-VP16 [1]): No (Agonist defined as a compound whose Emax in the ARVP16 DNA Binding Assay (Agonist mode) is >20x DMSO control)
- IC50 (AR-VP16 [2]): < 1000 nM

SMILES: N#Cc1ncc(N2C(=O)C3(CCC3)N(c3ccc(OC4CCN(C(N)=O)CC4)cc3)C2=S)cc1C(F)(F)F [Compound 222, 4-(4-(7-(6-Cyano-5-(trifluoromethyl)pyridin-3-yl)-8-oxo-6-thioxo-5,7-diazaspiro[3.4]octan-5-yl)phenoxy)piperidine-1-carboxamide]
- ARVP16 DNA Binding Assay (Agonist mode): Agonist? (AR-VP16 [1]): Yes (Agonist defined as a compound whose Emax in the ARVP16 DNA Binding Assay (Agonist mode) is >20x DMSO control)
- IC50 (AR-VP16 [2]): < 1000 nM

SMILES: N#Cc1ncc(N2C(=O)C3(CCC3)N(c3ccc(F)c(OCCCN4CCOCC4)c3)C2=S)cc1C(F)(F)F [Compound 165, 5-(5-(4-Fluoro-3-(3-morpholinopropoxy)phenyl)-8-oxo-6-thioxo-5,7-diazaspiro[3.4]octan-7-yl)-3-(trifluoromethyl)picolinonitrile]
- ARVP16 DNA Binding Assay (Agonist mode): Agonist? (AR-VP16 [1]): No (Agonist defined as a compound whose Emax in the ARVP16 DNA Binding Assay (Agonist mode) is >20x DMSO control)
- IC50 (AR-VP16 [2]): > 1000 nM

SMILES: O=C1N(c2ccc3nnc(C(F)(F)F)n3n2)C(=S)N(c2ccc(OCCc3ccccn3)cc2)C12CCC2 [Compound 155, 5-(4-(2-(Pyridin-2-yl)ethoxy)phenyl)-6-thioxo-7-(3-(trifluoromethyl)-[1,2,4]triazolo[4,3-b]pyridazin-6-yl)-5,7-diazaspiro[3.4]octan-8-one]
- ARVP16 DNA Binding Assay (Agonist mode): Agonist? (AR-VP16 [1]): No (Agonist defined as a compound whose Emax in the ARVP16 DNA Binding Assay (Agonist mode) is >20x DMSO control)
- IC50 (AR-VP16 [2]): > 1000 nM

Source: patent US9108944B2, “Androgen receptor modulators and uses thereof” (ARAGON PHARMACEUTICALS, INC., priority 2010, dated 2015)
